Assay [1] deals with Nomo1 acute myeloid leukemia model. Briefly: Nomo1 xenograft tumor growth inhibition. Format: in vivo. The conditions noted are these: female SCID mice, 50 MK 4ON/3OFF/4ON, PO, alone, day 9. As for the experimental part: The in vivo therapeutic effect of a CD74-targeting ADC formulated in Phosphate-Buffered Saline (PBS) is determined in Nomo1 acute myeloid leukemia model after intravenous (IV) administration. The follow compounds were tested: anti-CD74_CysmAb Fc silent_L5-P1, anti-CD74_CysmAb Fc silent and IgG1-Linker-Payload Fc silent.
Nomo1 cells, obtained from DSMZ, were cultured in RPMI supplemented with 10% FBS. 0.1 ml containing 5×10^6 cells were subcutaneously inoculated into the right flank of female SCID mice, provided by Charles River. When tumors reached the appropriate volume, mice were randomized, 6 animals per group, using Easy stat software. IgG1-Linker-Payload Fc silent, anti-CD74_CysmAb Fc silent and anti-CD74_CysmAb Fc silent_L5-P1 (30 mg/kg) were injected once IV in PBS. Venetoclax (synthetized at the Servier Research Institute—IdRS) was formulated in PEG/EtOH/Phosal (Polyethylene glycol/ethanol/phosal, 30/10/60) and administered per os (PO) daily on weekdays (50 mpk, 4ON/3OFF/4ON). Mice body weight was monitored three times a week and tumor size measured using electronic calipers. […] The last day with at least half of animals of all groups still present in the study (d9), tumor growth inhibition was calculated using the formula: […]
With DTV (Delta Tumor Volume) at Dx, calculated being TV at Dx-TV at Randomization. […]

For assay [2], the system named is Karpas422 diffuse large B-cell lymphoma model. Briefly: Karpas422 xenograft tumor growth inhibition. Format: in vivo, mice. As to conditions: 50 MK 4ON/3OFF/4ON, PO, alone.
Protocol: The in vivo therapeutic effect of a CD74-targeting ADC formulated in Phosphate-Buffered Saline (PBS) was determined in Karpas422 diffuse large B-cell lymphoma model after intravenous (IV) administration.
Karpas422 cells, obtained from ATCC, were cultured in RPMI supplemented with 20% FBS. Cells were resuspended in 100% Matrigel (BD Biosciences) and 0.1 ml containing 11×10^6 cells were subcutaneously inoculated into the right flank of female NSG mice, provided by Charles River. When tumors reached the appropriate volume, mice were randomized, 6 animals per group, using Easy stat software. IgG1-Linker-Payload Fc silent, anti-CD74_CysmAb Fc silent and anti-CD74_CysmAb Fc silent_L5-P1 (30 mg/kg) were injected once IV in PBS. Venetoclax (synthetized at the Servier Research Institute—IdRS) was formulated in PEG/EtOH/Phosal (Polyethylene glycol/ethanol/phosal, 30/10/60) and administered per os (PO) daily on weekdays (50 mpk, 4ON/3OFF/4ON). Mice body weight was monitored three times a week and tumor size measured using electronic calipers. Tumor volume was estimated by measuring the minimum and maximum tumor diameters using the formula: (minimum diameter)^2(maximum diameter)/2. The last day with at least half of control animals still present in the study (d23), tumor growth inhibition was calculated using the formula:
With DTV (Delta Tumor Volume) at Dx, calculated being TV at Dx-TV at Randomization. Response was evaluated as it follows: CR (Complete Response) if tumor size was <25 mm^3 for at least three measurements, PR (Partial Response) if tumor size was comprised between 25 mm^3 and 168.3 mm^3 (half of the starting size) for at least three measurements. Mice were sacrificed at the first measurement for which tumor volume exceeded 2000 mm^3 or at the first signs of animal health deterioration. […] SCID mice were maintained according to institutional guidelines.
In assay [3] the test system is Monomac1 acute myeloid leukemia model. Put plainly: Monomac1 xenograft tumor growth inhibition. As to conditions: 50MK 2ON/2OFF/5ON/2OFF/4ON, PO, alone. Format: in vivo, mice.
Protocol: The in vivo therapeutic effect of a CD74-targeting ADC formulated in Phosphate-Buffered Saline (PBS) was determined in Monomac1 acute myeloid leukemia model after intravenous (IV) administration. The following compounds were tested: CD74-targeting ADC is anti-CD74_CysmAb Fc silent_L5-P1, IgG1-Linker-Payload Fc silent, and anti-CD74_CysmAb Fc silent.
Monomac1 cells, obtained from DSMZ, were cultured in RPMI supplemented with 10% FBS. 0.1 ml containing 5×10^6 cells were subcutaneously inoculated into the right flank of female SCID mice, provided by Charles River. When tumors reached the appropriate volume, mice were randomized, 6 animals per group, using Easy stat software. IgG1-Linker-Payload Fc silent, anti-CD74_CysmAb Fc silent and anti-CD74_CysmAb Fc silent_L5-P1 (30 mg/kg) were injected once IV in PBS. Venetoclax (synthetized at the Servier Research Institute—IdRS) was formulated in PEG/EtOH/Phosal (Polyethylene glycol/ethanol/phosal, 30/10/60) and administered per os (PO) daily on weekdays (50 mpk, 2ON/2OFF/5ON/2OFF/4ON). Mice body weight was monitored three times a week and tumor size measured using electronic calipers. Tumor volume was estimated by measuring the minimum and maximum tumor diameters using the formula: (minimum diameter)^2(maximum diameter)/2. The last day with at least half of control animals still present in the study (d16), tumor growth inhibition was calculated using the formula:
With DTV (Delta Tumor Volume) at Dx, calculated being TV at Dx-TV at Randomization. […] Mice were sacrificed at the first measurement for which tumor volume exceeded 2000 mm^3 or at the first signs of animal health deterioration. […] SCID mice were maintained according to institutional guidelines.
Assay [4] relates to EOL1 human acute myeloid (eosinophilic) leukemia xenograft model. Briefly: EOL1 xenograft, CD74-L5-P1 Fc silent with venetoclax (Example 14). Format: in vivo, mice. As for the experimental part: EOL1 luciferase transfected cells were cultured at 37° C. in an atmosphere of 5% CO2 in air in RPMI1640 (BioConcept Ltd. Amimed) supplemented with 10% FCS (BioConcept Ltd. Amimed, #2-01 F30-1), 2 mM L-glutamine (BioConcept Ltd. Amimed, #5-10K00-H) and 1 mM sodium pyruvate (BioConcept Ltd. Amimed, #5-60F00-H), 10 mM HEPES (Gibco #11560496). To establish EOL1 xenografts cells were harvested and re-suspended in HBSS (Gibco, #14175) before injecting 100 μL containing 5×10^6 cells subcutaneously in the flanks of female SCID beige mice (Charles River, Germany). Tumor growth was monitored regularly post cell inoculation and animals were randomized into treatment groups (n=6) with a mean tumor volume of about 130 mm^3. CD74-L5-P1 Fc silent, isotype IgG1 ADC Fc silent and CD74 Fc silent antibody were administered intravenously (iv) once at the start of treatment at the doses indicated in FIG. 12 either alone or in combination with venetoclax which was administered orally (po) daily (qd) at 50 mg/kg. Doses were adjusted to individual mouse body weights. The iv dose volume was 10 ml/kg and each ADC was dissolved in 0.9% (w/v) NaCl in water. Tumor volume data on day 10 post treatment were analyzed statistically using Kruskal-Wallis rank sum test (Indigo Software). When applicable, results are presented as mean±SEM. As a measure of efficacy the % T/C value is calculated on day 10 according to:
(Δtumor volume^treated/Δtumor volume^control)*100
Tumor regression was calculated according to:
−(Δtumor volume^treated/tumor volume^treated at start)*100
Where Δtumor volumes represent the mean tumor volume on the evaluation day minus the mean tumor volume at the start of the experiment.

As for `CC1(C)CCC(CN2CCN(c3ccc(C(=O)NS(=O)(=O)c4ccc(NCC5CCOCC5)c([N+](=O)[O-])c4)c(Oc4cnc5[nH]ccc5c4)c3)CC2)=C(c2ccc(Cl)cc2)C1` [Venetoclax], the “% TGI (d9)” value in assay [1] came to 26.2%. The “% CR” value in assay [2] and in assay [3] was 0% in each case. In addition, the “% PR” value in assay [2] and in assay [3] was 0% throughout. Further, the “% TGI (d23)” value in assay [2] (female NSG mice, day 23) was found to be 31.1%. Also, the “% TGI (d16)” value in assay [3] (female SCID mice, day 16) is 4.5%. In addition, the “T/C (%)” value in assay [4] (50 mg/kg p.o. qd + vehicle for ADC, day 10) is 90%. The “ΔTumor volume (mm^3)” value in assay [4] (50 mg/kg p.o. qd + vehicle for ADC, day 10, mean) was 977 mm^3. Also, in assay [4] (50 mg/kg po qd alone), the “antitumor effect (in words)” value is “Limited efficacy”.
